Assays:
HCT-116 = experiment: Antiproliferative activity against human HCT-116 cells incubated for 48 hrs by CCK-8 assay; assay type: functional, cell-based; settings: HCT-116, 48 h
HepG2 = experiment: Antiproliferative activity against human HepG2 cells incubated for 48 hrs by CCK-8 assay; assay type: functional, cell-based; settings: HepG2, 48 h
SW480 = experiment: Antiproliferative activity against human SW480 cells incubated for 48 hrs by CCK-8 assay; assay type: functional, cell-based; settings: SW480, 48 h
HeLa = experiment: Antiproliferative activity against human HeLa cells incubated for 48 hrs by CCK-8 assay; assay type: functional, cell-based
MDA-MB-231 = experiment: Antiproliferative activity against human MDA-MB-231 cells incubated for 48 hrs by CCK-8 assay; assay type: functional, cell-based; settings: MDA-MB-231, 48 h
[1] = Antiproliferative activity against human HEK293T cells incubated for 48 hrs by CCK-8 assay; assay type: toxicity, cell-based, HEK-293T

COc1cc(-c2ccnn2-c2cccc3ccccc23)cc(OC)c1OC
IC50 (HCT-116): > 64 µM

COc1cc(-c2cnc(N)nc2-c2cc(OC)c(OC)c(OC)c2)ccc1O
IC50 (HCT-116): > 64 µM

COc1cc(-c2ccnn2-c2ccc(Cl)cc2)cc(OC)c1OC
IC50 (HCT-116): > 64 µM

COc1cc(-c2ccnn2-c2ccc(OCc3ccccc3)cc2)cc(OC)c1OC
IC50 (HCT-116): > 64 µM

COc1ccc(-c2cnc(N)nc2-c2cc(OC)c(OC)c(OC)c2)cc1N
IC50 (HCT-116): 7.45 µM
IC50 (HepG2): 17 µM
IC50 (SW480): 52.2 µM
IC50 (HeLa): > 64 µM
IC50 (MDA-MB-231): 11.6 µM
IC50 at 48 h [1]: > 80 µM

COc1cc(-c2ccnn2-c2ccccc2[N+](=O)[O-])cc(OC)c1OC
IC50 (HCT-116): > 64 µM

COc1cc(-c2nc(N)ncc2-c2ccc(C)c(C)c2)cc(OC)c1OC
IC50 (HCT-116): 23.9 µM
IC50 (HepG2): 15.2 µM
IC50 (SW480): > 64 µM
IC50 (HeLa): > 64 µM
IC50 (MDA-MB-231): > 64 µM
IC50 at 48 h [1]: > 80 µM

COc1ccc(-c2cnc(N)nc2-c2cc(OC)c(OC)c(OC)c2)cc1[N+](=O)[O-]
IC50 (HCT-116): > 64 µM

COc1cccc(-c2cnc(N)nc2-c2cc(OC)c(OC)c(OC)c2)c1
IC50 (HCT-116): > 64 µM

COc1cc(-c2nc(N)ncc2-c2ccc(CO)cc2)cc(OC)c1OC
IC50 (HCT-116): > 64 µM

COc1ccc(-c2cnc(N)nc2-c2cc(OC)c(OC)c(OC)c2)cc1C=O
IC50 (HCT-116): > 64 µM

COc1cc(-c2ccnn2-c2ccc(S(N)(=O)=O)cc2)cc(OC)c1OC
IC50 (HCT-116): > 64 µM

COc1cc(-c2ccnn2-c2ccc(I)cc2)cc(OC)c1OC
IC50 (HCT-116): 14.7 µM
IC50 (HepG2): 5.64 µM
IC50 (SW480): 28.2 µM
IC50 (HeLa): 23.4 µM
IC50 (MDA-MB-231): 8.21 µM
IC50 at 48 h [1]: > 80 µM

COc1ccc(-n2nccc2-c2cc(OC)c(OC)c(OC)c2)cc1
IC50 (HCT-116): > 64 µM

COc1cc(-c2ccnn2-c2cccc([N+](=O)[O-])c2)cc(OC)c1OC
IC50 (HCT-116): > 64 µM

COc1cc(-c2nc(N)ncc2-c2cnc(N)nc2)cc(OC)c1OC
IC50 (HCT-116): > 64 µM

COc1cc(-c2cnc(N)nc2-c2cc(OC)c(OC)c(OC)c2)cc(OC)c1OC
IC50 (HCT-116): > 64 µM

COc1cc(-c2ccnn2-c2nccs2)cc(OC)c1OC
IC50 (HCT-116): > 64 µM

COc1cc(-c2ccnn2-c2ccc(C#N)cc2)cc(OC)c1OC
IC50 (HCT-116): > 64 µM

COc1ccc(-c2cnc(NC(C)=O)nc2-c2cc(OC)c(OC)c(OC)c2)cc1N
IC50 (HCT-116): > 64 µM
IC50 (HepG2): > 64 µM
IC50 (SW480): > 64 µM
IC50 (HeLa): > 64 µM
IC50 (MDA-MB-231): > 64 µM
IC50 at 48 h [1]: > 80 µM

COc1cc(-c2nc(N)ncc2-c2ccc3c(cnn3C)c2)cc(OC)c1OC
IC50 (HCT-116): > 64 µM

CCOc1cc(-c2cnc(N)nc2-c2cc(OC)c(OC)c(OC)c2)ccc1Cl
IC50 (HCT-116): > 64 µM

COc1cc(-c2ccnn2-c2cccnc2)cc(OC)c1OC
IC50 (HCT-116): > 64 µM

COC(=O)c1ccc(-c2cnc(N)nc2-c2cc(OC)c(OC)c(OC)c2)cc1
IC50 (HCT-116): > 64 µM

COc1cc(-c2nc(N)ncc2-c2ccc3c(ccn3C)c2)cc(OC)c1OC
IC50 (HCT-116): 14.7 µM
IC50 (HepG2): 30.8 µM
IC50 (SW480): 5.05 µM
IC50 (HeLa): 7.54 µM
IC50 (MDA-MB-231): > 64 µM
IC50 at 48 h [1]: > 80 µM

COc1cc(-c2nc(N)ncc2-c2ccc([N+](=O)[O-])cc2)cc(OC)c1OC
IC50 (HCT-116): > 64 µM

COc1cc(-c2ccnn2-c2ccc(CO)cc2)cc(OC)c1OC
IC50 (HCT-116): > 64 µM

COc1cc(-c2nc(N)ncc2-c2ccc(N)cc2)cc(OC)c1OC
IC50 (HCT-116): 38.5 µM

COc1cc(-c2nc(N)ncc2-c2ccc(Cl)cc2)cc(OC)c1OC
IC50 (HCT-116): > 64 µM

COCc1ccc(-c2cnc(N)nc2-c2cc(OC)c(OC)c(OC)c2)cc1
IC50 (HCT-116): 16.7 µM
IC50 (HepG2): 2.04 µM
IC50 (SW480): > 64 µM
IC50 (HeLa): > 64 µM
IC50 (MDA-MB-231): 14 µM
IC50 at 48 h [1]: > 80 µM

COc1cc(-c2ccnn2-c2ccc(C)c(C)c2)cc(OC)c1OC
IC50 (HCT-116): > 64 µM

COc1ccc(-c2cnc(N)nc2-c2cc(OC)c(OC)c(OC)c2)cc1
IC50 (HCT-116): 12.7 µM
IC50 (HepG2): 29.9 µM
IC50 (SW480): > 64 µM
IC50 (HeLa): 60.5 µM
IC50 (MDA-MB-231): 22.4 µM
IC50 at 48 h [1]: > 80 µM

COc1cc(-c2nc(N)ncc2-c2cc3ccccc3s2)cc(OC)c1OC
IC50 (HCT-116): 4.22 µM
IC50 (HepG2): 0.25 µM
IC50 (SW480): 5.99 µM
IC50 (HeLa): 17.9 µM
IC50 (MDA-MB-231): 14.5 µM
IC50 at 48 h [1]: > 80 µM

COc1cc(-c2nc(N)ncc2-c2ccccc2C)cc(OC)c1OC
IC50 (HCT-116): > 64 µM

COc1cc(-c2nc(N)ncc2-c2cccc(C)c2)cc(OC)c1OC
IC50 (HCT-116): > 64 µM

COc1cc(-c2nc(N)ncc2-c2ccccc2)cc(OC)c1OC
IC50 (HCT-116): > 64 µM

COc1ccc(-c2cnc(N)nc2-c2cc(OC)c(OC)c(OC)c2)cc1Cl
IC50 (HCT-116): > 64 µM

COc1ccc(-c2cnc(N)nc2-c2cc(OC)c(OC)c(OC)c2)cc1F
IC50 (HCT-116): 13 µM
IC50 (HepG2): 34.1 µM
IC50 (SW480): 58.4 µM
IC50 (HeLa): 32.3 µM
IC50 (MDA-MB-231): 10.6 µM
IC50 at 48 h [1]: > 80 µM

COc1ccc(-n2nccc2-c2cc(OC)c(OC)c(OC)c2)cn1
IC50 (HCT-116): > 64 µM

COc1cc(-c2nc(N)ncc2-c2ccc3c(c2)OCCO3)cc(OC)c1OC
IC50 (HCT-116): > 64 µM

COc1cc(-c2nc(N)ncc2-c2ccc(F)cc2)cc(OC)c1OC
IC50 (HCT-116): > 64 µM

COc1cc(-c2nc(N)ncc2-c2ccc3cc[nH]c3c2)cc(OC)c1OC
IC50 (HCT-116): 3.87 µM
IC50 (HepG2): 1.37 µM
IC50 (SW480): 36.8 µM
IC50 (HeLa): 19.3 µM
IC50 (MDA-MB-231): 27.1 µM
IC50 at 48 h [1]: > 80 µM

COc1cc(-c2nc(N)ncc2-c2ccc(S(C)(=O)=O)cc2)cc(OC)c1OC
IC50 (HCT-116): > 64 µM

COc1cc(-c2ccnn2-c2ccc(Br)cc2)cc(OC)c1OC
IC50 (HCT-116): > 64 µM

COc1cc(-c2nc(N)ncc2-c2c[nH]c3ccccc23)cc(OC)c1OC
IC50 (HCT-116): > 64 µM

COc1cc(-c2ccnn2-c2ccc(C)cc2)cc(OC)c1OC
IC50 (HCT-116): 17 µM
IC50 (HepG2): 10.3 µM
IC50 (SW480): 37.9 µM
IC50 (HeLa): 46.6 µM
IC50 (MDA-MB-231): 7.29 µM
IC50 at 48 h [1]: > 80 µM

COc1cc(-c2nc(N)ncc2-c2ccc(SC)cc2)cc(OC)c1OC
IC50 (HCT-116): 11.8 µM
IC50 (HepG2): 52.1 µM
IC50 (SW480): > 64 µM
IC50 (HeLa): 37.8 µM
IC50 (MDA-MB-231): > 64 µM
IC50 at 48 h [1]: > 80 µM

COc1cc(-c2nc(N)ncc2-c2cn(S(=O)(=O)c3ccccc3)c3ccccc23)cc(OC)c1OC
IC50 (HCT-116): > 64 µM

COc1cc(-c2ccnn2-c2ccc(S(C)(=O)=O)cc2)cc(OC)c1OC
IC50 (HCT-116): > 64 µM

CCn1c2ccccc2c2cc(-c3cnc(N)nc3-c3cc(OC)c(OC)c(OC)c3)ccc21
IC50 (HCT-116): 3.04 µM
IC50 (HepG2): 0.57 µM
IC50 (SW480): 4.32 µM
IC50 (HeLa): 11.2 µM
IC50 (MDA-MB-231): 4.69 µM
IC50 at 48 h [1]: > 80 µM

COc1cc(-c2ccnn2-c2ccc(O)cc2)cc(OC)c1OC
IC50 (HCT-116): > 64 µM

CNS(=O)(=O)Cc1ccc(-n2nccc2-c2cc(OC)c(OC)c(OC)c2)cc1
IC50 (HCT-116): > 64 µM

COc1cc(-c2ccnn2-c2ccc([N+](=O)[O-])cc2)cc(OC)c1OC
IC50 (HCT-116): > 64 µM

COc1cc(-c2nc(N)ncc2-c2ccc(C)cc2)cc(OC)c1OC
IC50 (HCT-116): > 64 µM
IC50 (HepG2): 45.8 µM
IC50 (SW480): 39.7 µM
IC50 (HeLa): 25.2 µM
IC50 (MDA-MB-231): > 64 µM
IC50 at 48 h [1]: > 80 µM

COc1cc(-c2ccnn2-c2cccc(N)c2)cc(OC)c1OC
IC50 (HCT-116): > 64 µM

COc1cc(-c2ccnn2-c2ccc(C(=O)O)cc2)cc(OC)c1OC
IC50 (HCT-116): > 64 µM

COC(=O)c1ccc(-n2nccc2-c2cc(OC)c(OC)c(OC)c2)cc1
IC50 (HCT-116): > 64 µM

COc1cc(-c2ccnn2-c2ccc(F)cc2)cc(OC)c1OC
IC50 (HCT-116): > 64 µM
